Molecules are shown by their SMILES.

The values below come from patent US9428733B2, “Method for obtaining pancreatic endocrine cells from adipose tissue-origin cells” (AKIFUMI MATSUYAMA, priority 2005, dated 2016).

The test system of this assay is pancreatic islets obtained from adipose tissue-derived cells. Briefly: Insulin secretion from pancreatic islets obtained from adipose tissue-derived cells, ELISA of culture supernatant. It counts as cell-based, Human. Conditions: 2 hours; for secretion of insulin: RPMI 1640 containing 3.3 mM or 16.7 mM glucose, FIG. 17. As for the experimental part: The insulin level and the C-peptide level in the culture supernatant were measured using ELISA kit (Mercodia).
For orientation: An ELISA detects its analyte on a solid surface through an enzyme-linked reagent.

Turning to `CC(C)Cn1c(=O)n(C)c(=O)c2[nH]cnc21` [IBMX], for the setting “100 μM”, the secretion of insulin result was “promoted”.
Same read-out and setting: the entry for `C[N+](C)(C)CCOC(N)=O` [carbachol] is “promoted”.
For `Cn1c(=O)c2[nH]cnc2n(C)c1=O` [theophylline], the secretion of insulin entry (100 μM) is on record as “promoted”. Moreover, the “amount (insulin, C-peptide) secreted by islets in medium containing theophylline versus medium without” value (10 mM theophylline control, 3.3 mM or 16.7 mM glucose, FIGS. 14-16) is “similar”.
Turning to `CCCCNC(=O)NS(=O)(=O)c1ccc(C)cc1` [tolbutamide], the secretion of insulin result (10 μM) is recorded as “promoted”.
